According to patent publication US20250154198A1, “PEPTIDE INHIBITORS OF INTERLEUKIN-23 RECEPTOR” (Zealand Pharma A/S, priority 2021, published 2025):
Read-outs that look alike come from different tables or passages of the source. *1 amine or outer side, *2 acyl side, *3 side chain or, on linkers, in order; H or OH if unused. Where a SMILES comes first, the peptide text is derived from it. Bridges are numbered along the chain shown (N, C = ends). [ ]: non-standard residue; d: D form. The star is where a group is joined. Ala(quinolin-3-yl) = N[C@@H](Cc1cnc2ccccc2c1)C(=O)O; αMeAla(3-pyridyl) = C[C@](N)(Cc1cccnc1)C(=O)O; Trp(1-Me) = Cn1cc(C[C@H](N)C(=O)O)c2ccccc21; Phe(3,4-Me2) = Cc1ccc(C[C@H](N)C(=O)O)cc1C; Bip = N[C@@H](Cc1ccc(-c2ccccc2)cc1)C(=O)O; Phe(4-Me) = Cc1ccc(C[C@H](N)C(=O)O)cc1; 2Nal = N[C@@H](Cc1ccc2ccccc2c1)C(=O)O; AEF = NCCOc1ccc(C[C@H](N)C(=O)O)cc1; X1 = O=C(Cc1ccc(CN[*:1])cc1)[*:2]; X22 = NC(=O)C[C@@H](N*)c1cccnc1; d3Pal = N[C@H](Cc1cccnc1)C(=O)O; αMeL = CC(C)C[C@](C)(N)C(=O)O; CH2COCH2 = O=C(C[*:1])C[*:2]; αMeV = CC(C)[C@](C)(N)C(=O)O; 3Amb = NCc1cccc(C(=O)O)c1; 4Amb = NCc1ccc(C(=O)O)cc1; Dab = NCC[C@H](N)C(=O)O

Columns and labels:
[1] = Peptide stability in simulated intestinal fluid (SIF); assay type: in vitro ADME; conditions: pig, simulated intestinal fluid (SIF) with porcine pancreatin, Table 3-2, porcine pancreatin, pH 6.8, 37° C., 10 μM, 4 h, read-out: SIF (% remaining 4 h)
Description: Determination of Peptide Stability in Simulated Gastric Fluid (SGF) and Simulated Intestinal Fluid (SIF)
SGF was prepared by dissolving sodium chloride (0.2 g) in 50 mL of water. A volume of 0.7 mL of 10 M HCl was added to adjust the pH of the solution to 1.2 and the volume made up to 100 mL with water. […] SIF was prepared by dissolving monobasic potassium phosphate (0.68 g) in 50 mL of water and adjusting the pH to 6.8 with 1 M NaOH. The volume was subsequently made up to 100 mL with water. 200 mg porcine pancreatin (P1625, Sigma Aldrich) was gently dissolved into 20 mL preheated (37° C.) solution (10 g/L) immediately prior to the incubation.
The incubation was performed at 37° C. with gentle shaking. […] After the last timepoint, the sampling plate was mixed for 10 min on a shaking table and centrifuged 10 min at 2200 g. 70 μL resulting supernatant was diluted with 150 μL water, mixed and centrifugated before analysis by liquid chromatography high resolution mass spectrometry. […] Percent remaining at each timepoint was calculated relative to timepoint zero based on absolute peak areas.

human IL-23R = target: T1, human IL-23R (Homo sapiens, UniProt Q5VWK5); assay: Binding assay (NanoBRET displacement of fluorophore-labelled reference compound) for estimating binding affinity to human IL-23R
T1 construct: UniProtKB—Q5VWK5, amino acids 22-629; secretion signal of the plasmid (Promega N1371); expressed in transfected cells
T1 sequence (Q5VWK5 22-629): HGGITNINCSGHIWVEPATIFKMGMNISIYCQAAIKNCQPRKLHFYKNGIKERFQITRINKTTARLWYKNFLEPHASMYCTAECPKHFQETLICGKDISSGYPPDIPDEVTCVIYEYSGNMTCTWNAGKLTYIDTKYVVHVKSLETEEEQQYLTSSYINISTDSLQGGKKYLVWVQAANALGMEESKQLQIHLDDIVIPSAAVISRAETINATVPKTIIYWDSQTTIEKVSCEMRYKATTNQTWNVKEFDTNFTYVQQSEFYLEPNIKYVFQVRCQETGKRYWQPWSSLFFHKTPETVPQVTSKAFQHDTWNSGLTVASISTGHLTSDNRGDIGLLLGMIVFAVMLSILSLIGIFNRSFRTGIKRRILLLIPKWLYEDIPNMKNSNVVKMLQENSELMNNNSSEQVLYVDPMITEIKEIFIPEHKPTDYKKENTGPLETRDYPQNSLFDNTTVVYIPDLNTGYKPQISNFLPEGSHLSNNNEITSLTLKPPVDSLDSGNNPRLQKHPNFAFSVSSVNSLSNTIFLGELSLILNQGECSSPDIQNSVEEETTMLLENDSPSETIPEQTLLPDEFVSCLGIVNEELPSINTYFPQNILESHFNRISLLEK

[2] = Table 3-1, read-out: Ki hIL-23R

Compound | Ki (human IL-23R; [2]) [nM] | also measured
CC[C@H](C)[C@@H]1NC(=O)Cc2ccc(cc2)CNC(=O)CC[C@@H](C(=O)N[C@@H](CCN)C(=O)N[C@@](C)(Cc2cccnc2)C(N)=O)NC(=O)[C@](C)(C(C)C)NC(=O)[C@H](Cc2cn(C)c3ccccc23)NC(=O)[C@H](Cc2ccc(C)cc2)NC(=O)[C@@H]2CCNC(=O)CC[C@H](NC1=O)C(=O)N[C@@H](Cc1c[nH]c3ccccc13)C(=O)N[C@@H](CCC(N)=O)C(=O)N2 [Compound 175, [4-Aminomethyl-phenylacetyl](1c)*IE(2c)WQ[Dab](2c)[F(4-Me)][1-Me-Trp][2-Me-Val]E(1c)[Dab][2-Me-3-(3-Pyridyl)-Ala]-[NH2]] ([X1]IEWQ[Dab][Phe(4-Me)][Trp(1-Me)][αMeV]E[Dab][αMeAla(3-pyridyl)]-NH2; lactam 3-6, N-10) | – | remaining at 4 h, 10 μM [1]: 93%
CC[C@H](C)[C@@H]1NC(=O)Cc2ccc(cc2)CNC(=O)CC[C@@H](C(=O)N[C@@H](CCN)C(=O)N[C@@](C)(Cc2cccnc2)C(N)=O)NC(=O)[C@](C)(C(C)C)NC(=O)[C@H](Cc2ccc(C)c(C)c2)NC(=O)[C@H](Cc2ccc(-c3ccccc3)cc2)NC(=O)[C@@H]2CCNC(=O)CC[C@H](NC1=O)C(=O)N[C@@H](Cc1c[nH]c3ccccc13)C(=O)N[C@@H](CCC(N)=O)C(=O)N2 [Compound 168, [4-Aminomethyl-phenylacetyl](1c)*IE(2c)WQ[Dab](2c)[Bip][F(3,4-Me)][2-Me-Val]E(1c)[Dab][2-Me-3-(3-Pyridyl)-Ala]-[NH2]] ([X1]IEWQ[Dab][Bip][Phe(3,4-Me2)][αMeV]E[Dab][αMeAla(3-pyridyl)]-NH2; lactam 3-6, N-10) | – | remaining at 4 h, 10 μM [1]: 104%
CC(=O)N[C@@H](CC(=O)O)C(=O)N[C@H]1CSCC(=O)CSC[C@@H](C(=O)N[C@@H](CCC(=O)O)C(=O)N[C@@H](CC(N)=O)C(=O)NCC(N)=O)NC(=O)[C@](C)(CC(C)C)NC(=O)[C@H](Cc2c[nH]c3ccccc23)NC(=O)[C@H](Cc2c[nH]c3ccccc23)NC(=O)[C@@H]2CSCC(=O)CSC[C@H](NC(=O)[C@H](CCC(N)=O)NC1=O)C(=O)N[C@@H](Cc1c[nH]c3ccccc13)C(=O)N[C@@H](CCC(N)=O)C(=O)N2 [Compound 64, [Ac]-DC(1a)QC(2a)WQC(2a)WW[2-Me-Leu]C(1a)ENG-[NH2]] (Ac-DCQCWQCWW[αMeL]CENG-NH2; linker 2-11, 4-7 via CH2COCH2) | – | Ki (human IL-23R): > 1000 nM
CC(C)C[C@]1(C)NC(=O)[C@H](Cc2ccc3ccccc3c2)NC(=O)[C@H](Cc2ccc(OCCN)cc2)NC(=O)[C@@H]2CSCC(=O)CSC[C@H](NC(=O)[C@H](CO)NC(=O)c3ccc(cc3)CNC(=O)CC[C@@H](C(=O)N[C@@H](CCCNC(=N)N)C(N)=O)NC1=O)C(=O)N[C@@H](Cc1c[nH]c3ccccc13)C(=O)N[C@@H](CCC(N)=O)C(=O)N2 [Compound 49, [(4-Aminomethyl)benzoyl](1c)*SC(2a)WQC(2a)[Y(2-aminoethoxy)][2-Nal][2-Me-Leu]E(1c)R-[NH2]] ([4Amb]SCWQC[AEF][2Nal][αMeL]ER-NH2; linker 3-6 via CH2COCH2; lactam N-10) | – | Ki (human IL-23R; Table 2-10b, read-out: Ki IL-23R): 1.16 nM
CC(C)C[C@]1(C)NC(=O)[C@H](Cc2ccc3ccccc3c2)NC(=O)[C@H](Cc2ccc(OCCN)cc2)NC(=O)[C@@H]2CCNC(=O)CC[C@H](NC(=O)[C@H](CO)NC(=O)c3cccc(c3)CNC(=O)CC[C@@H](C(=O)N[C@@H](CCCNC(=N)N)C(N)=O)NC1=O)C(=O)N[C@@H](Cc1c[nH]c3ccccc13)C(=O)N[C@@H](CCC(N)=O)C(=O)N2 [Compound 67, [(3-Aminomethyl)benzoyl](1c)*SE(2c)WQ[Dab](2c)[Y(2-aminoethoxy)][2-Nal][2-Me-Leu]E(1c)R-[NH2]] ([3Amb]SEWQ[Dab][AEF][2Nal][αMeL]ER-NH2; lactam 3-6, N-10) | 0.76 | –
CC(C)C[C@]1(C)NC(=O)[C@H](Cc2ccc3ccccc3c2)NC(=O)[C@H](Cc2ccc(OCCN)cc2)NC(=O)[C@@H]2CSCC(=O)CSC[C@H](NC(=O)[C@H](CO)NC(=O)c3cccc(c3)CNC(=O)CC[C@@H](C(=O)N[C@@H](CCCNC(=N)N)C(=O)N[C@@H](Cc3cnc4ccccc4c3)C(N)=O)NC1=O)C(=O)N[C@@H](Cc1c[nH]c3ccccc13)C(=O)N[C@@H](CCC(N)=O)C(=O)N2 [Compound 149, [(3-Aminomethyl)benzoyl](1c)*SC(2a)WQC(2a)][Y(2-aminoethoxy)][2-Nal][2-Me-Leu]E(1c)R[3-(3-Quinolinyl)-Ala]-[NH2]] ([3Amb]SCWQC[AEF][2Nal][αMeL]ER[Ala(quinolin-3-yl)]-NH2; linker 3-6 via CH2COCH2; lactam N-10) | 0.163 | –

Further lines, with some results ahead:

Ki (human IL-23R; [2]) [nM] | Compound | also measured
0.597 | CC(C)C[C@]1(C)NC(=O)[C@H](Cc2ccc3ccccc3c2)NC(=O)[C@H](Cc2ccc(OCCN)cc2)NC(=O)[C@@H]2CSCC(=O)CSC[C@H](NC(=O)[C@H](CO)NC(=O)c3cccc(c3)CNC(=O)CC[C@@H](C(=O)N[C@@H](CCCNC(=N)N)C(=O)N[C@H](Cc3cccnc3)C(N)=O)NC1=O)C(=O)N[C@@H](Cc1c[nH]c3ccccc13)C(=O)N[C@@H](CCC(N)=O)C(=O)N2 [Compound 150, [(3-Aminomethyl)benzoyl](1c)*SC(2a)WQC(2a)][Y(2-aminoethoxy)][2-Nal][2-Me-Leu]E(1c)R[{d}[3-(3-Pyridyl)-Ala]]-[NH2]] ([3Amb]SCWQC[AEF][2Nal][αMeL]ER[d3Pal]-NH2; linker 3-6 via CH2COCH2; lactam N-10) | –
3.32 | CC(C)C[C@]1(C)NC(=O)[C@H](Cc2ccc3ccccc3c2)NC(=O)[C@H](Cc2ccc(OCCN)cc2)NC(=O)[C@@H]2CCC(=O)NCCC[C@H](NC(=O)[C@H](CO)NC(=O)c3cccc(c3)CNC(=O)CC[C@@H](C(=O)N[C@@H](CCCNC(=N)N)C(N)=O)NC1=O)C(=O)N[C@@H](Cc1c[nH]c3ccccc13)C(=O)N[C@@H](CCC(N)=O)C(=O)N2 (relative stereo) [Compound 68, [(3-Aminomethyl)benzoyl](1c)*S[Orn](2c)WQE(2c)[Y(2-aminoethoxy)][2-Nal][2-Me-Leu]E(1c)R-[NH2]] | –
0.182 | CC(C)C[C@]1(C)NC(=O)[C@H](Cc2ccc3ccccc3c2)NC(=O)[C@H](Cc2ccc(OCCN)cc2)NC(=O)[C@@H]2CSCC(=O)CSC[C@H](NC(=O)[C@H](CO)NC(=O)Cc3ccc(cc3)CNC(=O)CC[C@@H](C(=O)N[C@H](CCC(N)=O)C(N)=O)NC1=O)C(=O)N[C@@H](Cc1c[nH]c3ccccc13)C(=O)N[C@@H](CCC(N)=O)C(=O)N2 [Compound 115, [4-Aminomethyl-phenylacetyl](1c)*SC(2a)WQC(2a)[Y(2-aminoethoxy)][2-Nal][2-Me-Leu]E(1c)[{d}Q]-[NH2]] ([X1]SCWQC[AEF][2Nal][αMeL]E[dQ]-NH2; linker 3-6 via CH2COCH2; lactam N-10) | –
0.672 | CC(C)C[C@]1(C)NC(=O)[C@H](Cc2ccc3ccccc3c2)NC(=O)[C@H](Cc2ccc(OCCN)cc2)NC(=O)[C@@H]2CSCC(=O)CSC[C@H](NC(=O)[C@H](CO)NC(=O)c3cccc(c3)CNC(=O)CC[C@@H](C(=O)N[C@@H](CCCNC(=N)N)C(=O)N[C@H](CC(N)=O)c3cccnc3)NC1=O)C(=O)N[C@@H](Cc1c[nH]c3ccccc13)C(=O)N[C@@H](CCC(N)=O)C(=O)N2 [Compound 151, [(3-Aminomethyl)benzoyl](1c)*SC(2a)WQC(2a)][Y(2-aminoethoxy)][2-Nal][2-Me-Leu]E(1c)R[3-Amino-3-(3′-pyridyl)propionyl]-[NH2]] ([3Amb]SCWQC[AEF][2Nal][αMeL]ER-X22; linker 3-6 via CH2COCH2; lactam N-10) | –
0.188 | CC(C)C[C@]1(C)NC(=O)[C@H](Cc2ccc3ccccc3c2)NC(=O)[C@H](Cc2ccc(OCCN)cc2)NC(=O)[C@@H]2CSCC(=O)CSC[C@H](NC(=O)[C@H](CO)NC(=O)Cc3ccc(cc3)CNC(=O)CC[C@@H](C(=O)N[C@H](Cc3c[nH]cn3)C(N)=O)NC1=O)C(=O)N[C@@H](Cc1c[nH]c3ccccc13)C(=O)N[C@@H](CCC(N)=O)C(=O)N2 [Compound 117, [4-Aminomethyl-phenylacetyl](1c)*SC(2a)WQC(2a)[Y(2-aminoethoxy)][2-Nal][2-Me-Leu]E(1c)[{d}H]-[NH2]] ([X1]SCWQC[AEF][2Nal][αMeL]E[dH]-NH2; linker 3-6 via CH2COCH2; lactam N-10) | –
